The numbers were not newly measured in patent US6436991B1, “Composition and method containing products extracted from Commiphora sp. for prevention and treatment of abnormal cell growth and proliferation in inflammation, neoplasia and cardiovascular disease” (Sabinsa Corporation, priority 2000, dated 2002), which cites them from elsewhere.

For the data set the following is noted: literature values; read-out: IC50, DPPH radical scavenging (reported, Chen and Ho 1995). Background: Loss of DPPH colour is used to gauge radical scavenging.

A word on the IC50: it is the concentration at which inhibition is half-maximal. For the compound `O=C(O)c1cc(O)c(O)c(O)c1` [gallic acid], the 50% inhibitory concentration (IC50) is 10.6 µM.

With catechin, the IC50 was 18.6 µM.
